Experiments:
Assay in all cases: relative viability (nuclei count vs DMSO), 5 days (fraction); higher = more cells survive
[1] = compound: CCOC(=O)CCNc1cc(N2CCc3ccccc3CC2)nc(-c2ccccn2)n1 [GSK-J4] + COc1cccc2cc(-c3nc([C@H]4CC[C@H](C(=O)O)CC4)n4ncnc(N)c34)[nH]c12 [OSI-027] (partner 0.5 µM)
Summary of the method: (§1)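 Relative viability divides the nuclei count in treated wells by that in vehicle wells. Lung cancer cell lines were seeded in 1536-well plates, dosed by pin tool the next day, and fixed and stained after 5 days in one step with final 0.05% Triton X-100, 1% formaldehyde and 1 ug/ml Hoechst. Dosing was a single drug or a fixed anchor-drug dose plus five library-drug doses (not always all listed) in √10 steps, and values are medians of duplicate plates imaged at 4×.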

[2] = compound: CN1CCC(CC1)OC2=CC(=C(C=C2)NC3=NC=C4C(=N3)N(C(=O)N4C)C5CCCC5)OC [AZ3146] + C[C@]1(O)C[C@@H](c2nc(-c3ccc4ccc(-c5ccccc5)nc4c3)c3c(N)nccn32)C1 [Linsitinib] (partner 1 µM)
Summary of the method: as §1

[3] = compound: CN1CCC(CC1)OC2=CC(=C(C=C2)NC3=NC=C4C(=N3)N(C(=O)N4C)C5CCCC5)OC [AZ3146] + CC1(C)CCC(c2ccc(Cl)cc2)=C(CN2CCN(c3ccc(C(=O)NS(=O)(=O)c4ccc(N[C@H](CCN5CCOCC5)CSc5ccccc5)c(S(=O)(=O)C(F)(F)F)c4)cc3)CC2)C1 [Navitoclax] (partner 0.5 µM)
Summary of the method: as §1

[4] = compound: CCOC(=O)CCNc1cc(N2CCc3ccccc3CC2)nc(-c2ccccn2)n1 [GSK-J4] + O=C(CCCCCCC(=O)Nc1ccccc1)NO [Vorinostat] (partner 1 µM)
Summary of the method: as §1

NCI-H3122
relative viability ([1]; first compound 0.5 µM): 0.88
relative viability ([1]; first compound 5 µM): 1.1
relative viability ([1]; first compound 15.81 µM): 0.537
relative viability ([1]; first compound 50 µM): 0.674
relative viability ([2]; first compound 0.08 µM): 1.02
relative viability ([2]; first compound 0.253 µM): 1.06
relative viability ([2]; first compound 0.8 µM): 1.03
relative viability ([2]; first compound 2.53 µM): 1.04
relative viability ([2]; first compound 8 µM): 1.06
relative viability ([3]; first compound 0.08 µM): 1.05
relative viability ([3]; first compound 0.253 µM): 0.985
relative viability ([3]; first compound 0.8 µM): 1.03
relative viability ([3]; first compound 2.53 µM): 1
relative viability ([3]; first compound 8 µM): 1.03
relative viability ([4]; first compound 0.5 µM): 0.984
relative viability ([4]; first compound 1.581 µM): 0.876
relative viability ([4]; first compound 5 µM): 0.966
relative viability ([4]; first compound 15.81 µM): 0.905
relative viability ([4]; first compound 50 µM): 0.986

PC-3 [JPC-3]
relative viability ([1]; first compound 0.5 µM): 0.71
relative viability ([1]; first compound 1.581 µM): 0.65
relative viability ([1]; first compound 5 µM): 0.737
relative viability ([1]; first compound 15.81 µM): 0.585
relative viability ([1]; first compound 50 µM): 0.732
relative viability ([2]; first compound 0.08 µM): 0.972
relative viability ([2]; first compound 0.253 µM): 0.96
relative viability ([2]; first compound 0.8 µM): 1.01
relative viability ([2]; first compound 2.53 µM): 0.996
relative viability ([2]; first compound 8 µM): 0.932
relative viability ([3]; first compound 0.08 µM): 0.679
relative viability ([3]; first compound 0.253 µM): 0.836
relative viability ([3]; first compound 0.8 µM): 0.802
relative viability ([3]; first compound 2.53 µM): 0.797
relative viability ([3]; first compound 8 µM): 0.85
relative viability ([4]; first compound 0.5 µM): 1.05
relative viability ([4]; first compound 1.581 µM): 0.723
relative viability ([4]; first compound 5 µM): 0.671
relative viability ([4]; first compound 15.81 µM): 0.624
relative viability ([4]; first compound 50 µM): 0.725

PC-14
relative viability ([1]; first compound 0.5 µM): 0.844
relative viability ([1]; first compound 1.581 µM): 0.759
relative viability ([1]; first compound 5 µM): 0.777
relative viability ([1]; first compound 15.81 µM): 0.778
relative viability ([1]; first compound 50 µM): 0.694
relative viability ([2]; first compound 0.08 µM): 1.05
relative viability ([2]; first compound 0.253 µM): 0.995
relative viability ([2]; first compound 0.8 µM): 0.98
relative viability ([2]; first compound 2.53 µM): 1.03
relative viability ([2]; first compound 8 µM): 0.941
relative viability ([3]; first compound 0.08 µM): 0.959
relative viability ([3]; first compound 0.253 µM): 1.02
relative viability ([3]; first compound 0.8 µM): 1.12
relative viability ([3]; first compound 2.53 µM): 1.11
relative viability ([3]; first compound 8 µM): 0.898
relative viability ([4]; first compound 0.5 µM): 0.721
relative viability ([4]; first compound 1.581 µM): 0.66
relative viability ([4]; first compound 5 µM): 0.565
relative viability ([4]; first compound 15.81 µM): 0.63
relative viability ([4]; first compound 50 µM): 0.509

RERF-LC-KJ
relative viability ([1]; first compound 0.5 µM): 0.582
relative viability ([1]; first compound 1.581 µM): 0.475
relative viability ([1]; first compound 5 µM): 0.485
relative viability ([1]; first compound 15.81 µM): 0.473
relative viability ([1]; first compound 50 µM): 0.382
relative viability ([2]; first compound 0.08 µM): 0.904
relative viability ([2]; first compound 0.253 µM): 0.902
relative viability ([2]; first compound 0.8 µM): 0.972
relative viability ([2]; first compound 2.53 µM): 0.876
relative viability ([2]; first compound 8 µM): 0.896
relative viability ([3]; first compound 0.08 µM): 0.872
relative viability ([3]; first compound 0.253 µM): 0.878
relative viability ([3]; first compound 0.8 µM): 1.04
relative viability ([3]; first compound 2.53 µM): 0.787
relative viability ([3]; first compound 8 µM): 0.839
relative viability ([4]; first compound 0.5 µM): 0.679
relative viability ([4]; first compound 1.581 µM): 0.534
relative viability ([4]; first compound 5 µM): 0.576
relative viability ([4]; first compound 15.81 µM): 0.613
relative viability ([4]; first compound 50 µM): 0.485

SK-LU-1
relative viability ([1]; first compound 0.5 µM): 0.339
relative viability ([1]; first compound 1.581 µM): 0.318
relative viability ([1]; first compound 5 µM): 0.258
relative viability ([1]; first compound 15.81 µM): 0.292
relative viability ([1]; first compound 50 µM): 0.218
relative viability ([2]; first compound 0.08 µM): 1.02
relative viability ([2]; first compound 0.253 µM): 1.4
relative viability ([2]; first compound 0.8 µM): 1.13
relative viability ([2]; first compound 2.53 µM): 1.27
relative viability ([2]; first compound 8 µM): 0.547
relative viability ([3]; first compound 0.08 µM): 0.914
relative viability ([3]; first compound 0.253 µM): 0.702
relative viability ([3]; first compound 0.8 µM): 0.793
relative viability ([3]; first compound 2.53 µM): 0.926
relative viability ([3]; first compound 8 µM): 0.576
relative viability ([4]; first compound 0.5 µM): 0.751
relative viability ([4]; first compound 1.581 µM): 0.679
relative viability ([4]; first compound 5 µM): 0.626
relative viability ([4]; first compound 15.81 µM): 0.58
relative viability ([4]; first compound 50 µM): 0.578

SK-MES-1
relative viability ([1]; first compound 0.5 µM): 0.573
relative viability ([1]; first compound 1.581 µM): 0.542
relative viability ([1]; first compound 5 µM): 0.535
relative viability ([1]; first compound 15.81 µM): 0.436
relative viability ([1]; first compound 50 µM): 0.327
relative viability ([2]; first compound 0.08 µM): 1.06
relative viability ([2]; first compound 0.253 µM): 1.06
relative viability ([2]; first compound 0.8 µM): 1.01
relative viability ([2]; first compound 2.53 µM): 1.09
relative viability ([2]; first compound 8 µM): 1.12
relative viability ([3]; first compound 0.08 µM): 1.32
relative viability ([3]; first compound 0.253 µM): 1.22
relative viability ([3]; first compound 0.8 µM): 1.3
relative viability ([3]; first compound 2.53 µM): 1.35
relative viability ([3]; first compound 8 µM): 1.35
relative viability ([4]; first compound 0.5 µM): 0.986
relative viability ([4]; first compound 1.581 µM): 0.968
relative viability ([4]; first compound 5 µM): 1.04
relative viability ([4]; first compound 15.81 µM): 1.04
relative viability ([4]; first compound 50 µM): 0.524

SW 1573
relative viability ([1]; first compound 0.5 µM): 0.657
relative viability ([1]; first compound 1.581 µM): 0.423
relative viability ([1]; first compound 5 µM): 0.507
relative viability ([1]; first compound 15.81 µM): 0.519
relative viability ([1]; first compound 50 µM): 0.211
relative viability ([2]; first compound 0.08 µM): 0.912
relative viability ([2]; first compound 0.253 µM): 0.933
relative viability ([2]; first compound 0.8 µM): 0.823
relative viability ([2]; first compound 2.53 µM): 0.859
relative viability ([2]; first compound 8 µM): 0.708
relative viability ([3]; first compound 0.08 µM): 0.997
relative viability ([3]; first compound 0.253 µM): 1.1
relative viability ([3]; first compound 0.8 µM): 1.04
relative viability ([3]; first compound 2.53 µM): 0.93
relative viability ([3]; first compound 8 µM): 0.895
relative viability ([4]; first compound 0.5 µM): 0.817
relative viability ([4]; first compound 1.581 µM): 0.396
relative viability ([4]; first compound 5 µM): 0.406
relative viability ([4]; first compound 15.81 µM): 0.845
relative viability ([4]; first compound 50 µM): 0.276
